Data: the NIST ThermoML archive (doi:10.1016/j.jct.2006.01.015)

Legend:
[1] = 101 kPa, Liquid
[2] = xn = mol fraction of the nth substance listed; details: 101 kPa, Liquid

CC(=O)N(C)C [N,N-dimethylethanamide]
[1]
Details	mass density [kg/m3]
293.15 K	941
298.15 K	936.5
303.15 K	932
308.15 K	927.6
313.15 K	923.1
318.15 K	918.6

CNC(C)=O [N-methylacetamide]
[1]
Details	mass density [kg/m3]
293.15 K	958.4
298.15 K	954.2
303.15 K	950.1
308.15 K	945.9
313.15 K	941.7
318.15 K	937.6

CC#N [acetonitrile]
[1]
Details	mass density [kg/m3]
293.15 K	782.1
298.15 K	776.8
303.15 K	771.5
308.15 K	766.3
313.15 K	761
318.15 K	755.7

CC#N [acetonitrile] + CC(=O)N(C)C
[2], x1 = 1
Details	mass density [kg/m3]
293.15 K	782.1
298.15 K	776.8
303.15 K	771.5
308.15 K	766.3
313.15 K	761
318.15 K	755.7

CC#N [acetonitrile] + CNC(C)=O
[2], x1 = 1
Details	mass density [kg/m3]
293.15 K	782.1
298.15 K	776.8
303.15 K	771.5
308.15 K	766.3
313.15 K	761
318.15 K	755.7

CC#N [acetonitrile] + NC=O
[2], x1 = 1
Details	mass density [kg/m3]
293.15 K	782.1
298.15 K	776.8
303.15 K	771.5
308.15 K	766.3
313.15 K	761
318.15 K	755.7

CN(C)C=O [dimethylformamide]
[1]
Details	mass density [kg/m3]
293.15 K	949.1
298.15 K	944.6
303.15 K	940.1
308.15 K	935.7
313.15 K	931.2
318.15 K	926.7

CN(C)C=O [dimethylformamide] + CC#N
[2], x2 = 0
Details	mass density [kg/m3]
293.15 K	949.1
298.15 K	944.6
303.15 K	940.1
308.15 K	935.7
313.15 K	931.2
318.15 K	926.7

NC=O [formamide]
[1]
Details	mass density [kg/m3]
293.15 K	1133
298.15 K	1129
303.15 K	1125
308.15 K	1121
313.15 K	1117
318.15 K	1113
